This is an account of results in US7709537B1, “Food materials useful in preventing and ameliorating metabolic bone diseases and preventives/remedies for metabolic bone diseases comprising these materials” (Meiji Dairiese Corporation, priority 1999, dated 2010).

In data set [1] the test system is human osteoblasts (SaM-1). Description: Mineralization (Ca and P accumulation in extracellular matrices) of human osteoblasts. In kind it is cell-based. Conditions: SaM-1 cells, 32 days, 2 mM glycerophosphoric acid. As to the method:
Employed were cultured human osteoblasts (SaM-1), which had been established from the periosteum of an ulna of a person obtained during a surgical operation of a fractured bone. Those SaM-1 cells were equipped with all the characteristics of osteoblasts (Koshihara, Y. et al.: In Vitro Cell, Dev. Biol., 25, 37-43, 1989). SaM-1 cells are known to promote mineralization in the presence of 2 mM a-glycerophosphoric acid, depending upon the concentration of 1α,25(OH)2D3.
SaM-1 cells of 18 PDL (population doubling level) were seeded to a 12-well plate, and cultured to a confluent state. a-Glycerophosphoric acid, a mineralization promoter, was then added to 2 mM. […]
Ca in each extracellular matrix was quantitated by using a kit (“Calcium C Test Wako”) based on the o-cresolphthalein complexone method (OCPC method).
After completion of the culture, the cells were washed with Hanks' solution. […] Five minutes later, the reaction mixtures were measured by an absorptiometer (570 nm)(FIG. 6).
P in each extracellular matrix was quantitated by the method proposed by Chen et al. (Chen, P. S. et al.: Anal. Chem., 28, 1756-1758, 1956).
0.84% Ammonium molybdate, 2 N sulfuric acid and 10% ascorbic acid were mixed at 3:3:1 (volume ratio) to prepare a reaction reagent. The extracts (100 μL) obtained in the above-described Ca quantitation were each diluted with distilled water (800 μL). […]

Data set [2] deals with stromal cell line ST-2 derived from mouse bone marrow. Kind of data set: ALP activity of ST-2 cells cultured with ACNQ (osteogenesis promoting effect). Type of data set: cell-based. The protocol: Cells of the stromal cell line ST-2 derived from mouse bone marrow (Udagawa, N. et al.: Endocrinology 125, 1805-1813, 1989) were used as osteoblasts. These cells have similar osteoclast differentiation inducing ability for bone marrow cells as osteoblasts.
The cells were seeded in the individual wells of a 96-well plate at 4×10^4 cells/well, and cultured for 1 day in RPMI 1640 medium which contained 10% FBS, penicillin G and streptomycin.
The medium was replaced by the same medium which contained ACNQ, and cultured further for 3 days. After the culture, the ALP activity of cells was assayed.
(§1) The cells were washed with PBS, and then immobilized with ethanol for 1 minute. An enzyme reaction solution (a buffer containing p-nitrophenyl phosphate, 0.1 M glycine, 1 mM MgCl2 and 0.1 mM ZnCl2 as substrates, pH 10.5) of 37° C. was added to have the cells reacted at 37° C. for 30 minutes. An equiamount of 0.05 N NaOH was added to quench the reaction. ALP activity was expressed in terms of units, with 1 unit representing the amount of p-nitrophenol formed in a minute per mg-protein as measured in terms of absorbance at 415 nm). Protein contents were determined using a protein assay kit (product of Bio-Rad Lab.). Further, the cytotoxicity of ACNQ was measured by MTT assay (FIG. 5).

Data set [3] has the same test system. Kind of data set: Cytotoxicity of ACNQ by MTT assay in ST-2 cells. Conditions: at the peak concentration of ALP activity, 1 μg/mL (FIG. 5). In kind it is cell-based. As to the method: as §1
A general note: Formazan colour is commonly taken as a measure of viable cells.

The test system of data set [4] is human osteoblasts (SaM-1). Description: Cytotoxicity by free LDH in culture supernatant of SaM-1 cells. In kind it is cell-based. Particulars: 32nd day of culture, 10^−5 M to 10^−7 M (FIG. 8). The protocol: Using “LDH-Cytotoxic Test Wako” (cytotoxicity assay kit), free LDH in each culture supernatant was measured to investigate the cytotoxicity of ACNQ. Culture supernatants on the 32nd day of culture were sampled, and subsequent to a staining reaction, their LDH concentrations were measured by using a microplate reader (540 nm).

In data set [5] the test system is human bone marrow cells (monocytes). Kind of data set: Formation of TRAP-positive polykaryocytes in culture of human bone marrow monocytes. In kind it is cell-based. As to the method: (1) Human bone marrow cells obtained during an artificial caput replacement operation were subjected to density-gradient centrifugation to collect monocytes. Those monocytes were seeded into α-MEM medium, which contained 20% equine serum and 10^−8 M 1α,25(OH)2D3, to give 8×10^5 cells/well (079 cm^2), and were then cultured for […]. The cultures were each replaced twice a week by a half of its volume each time. Addition of ACNQ was conducted at the beginning.
On the 16th day of culture, the cultures were treated with pronase and EDTA to eliminate stromal cells. On the following day, the cells were washed with PBS(−) and then immobilized with formalin. The formalin-immobilized cells were subjected to TRAP staining, and the TRAP-positive polykaryocyte counts of the respective wells were determined. Vitamin K1 was used as a control.

In data set [6] the test system is primary osteoblast-like interstitial cells and bone marrow cells of ddY mice. Kind of data set: Osteoclast formation in co-culture of mouse osteoblast-like interstitial cells and bone marrow cells. In kind it is cell-based. An excerpt: (2) The calvaria of ddY mice newborn were enzymatically treated (with a mixed solution of collagenase and disperse) to obtain primary osteoblast-like interstitial cells. On the other hand, bone marrow cells were isolated from the femurs and shinbones of the same strain mice (males of 6 to 9 weeks of age). The primary osteoblast-like interstitial cells and bone marrow cells were co-cultured in the presence of ACNQ to investigate differentiation induction effect of ACNQ on osteoclasts.
Using αMEM added with 10% FBS, a culture which contained the primary osteoblast-like interstitial cells and the bone marrow cells at a cell count ratio of about 1:20 was co-cultured in the presence of 10^−8 M to 10^−10 M 1α,25(OH)2D3 for 6 to 8 days. During the culture period, ACNQ solutions of various concentrations and as a control for comparison, vitamin K2 which is known to inhibit the formation of osteoclasts, were added, respectively, upon culture medium replacement (replaced by a half of the volume of the culture medium; replaced on every third days).
Cells, which were positive to TRAP staining and internally contained 3 or more nuclei per cell, were collected as differentiated osteoclasts. […]

Data set [7] has as its system osteoclast-like polykaryocytes from ddY mouse co-culture. Kind of data set: Formation of bone resorption lacunae on a piece of dentinum by osteoclasts. Type of data set: cell-based. Particulars: 24 hours on dentinum, even at the highest concentration, 7.5 μg/mL (FIG. 11). As to the method: Investigated was the effect of ACNQ on the formation of bone resorption lacunae on a piece of dentinum by osteoclasts.
As in the test (2) of Test 4, a culture (20 mL) containing primary osteoblast-like interstitial cells, which had been derived from the calvariae of ddY mice newborn, and bone marrow cells, which had been isolated from the femurs and shinbones of the same strain mice (males of 6 to 9 weeks of age), at a ratio of 1×10^6 cells to 1×10^7 cells in a 100 mm dish was co-cultured for 6 to 8 days on a collagen gel in αMEM medium in which 10% FEB and 10^−8 M 1α,25(OH)2D3 had been added. Medium replacement was conducted on every third days. After the culture, a 0.2% collagenase solution was added. The thus-obtained mixture was gently shaken at 37° C. for 20 minutes to digest the collagen gel, and differentiation-induced osteoclast-like polykaryocytes were collected. The count of osteoclasts obtained by this method was at most 4×10^4 cells/100 mm-dish.
(§2) Those osteoclast-like polykaryocytes were prepared to 4×10^3 cells/mL with αMEM medium containing 10% FBS, seeded at 100 μL/well into wells (96 wells) in which pieces of dentinum were placed, respectively, and cultured at 37° C. for 2 hours. […] After the staining solution was removed, resorption lacunae formed in the surface of each piece of dentinum as a result of binging by […] were counted under a microscope. […]

The test system of data set [8] is osteoclasts from ddY mouse co-culture. Kind of data set: Cytotoxicity against osteoclasts on a piece of dentinum. Type of data set: cell-based. Conditions: differentiated and matured mouse osteoclasts (FIG. 11). The protocol: A still further investigation was also conducted on TRAP-positive cells formed by a co-culture system of primary osteoblast-like interstitial cells derived from the calvaria of a mouse newborn and mouse bone marrow cells. […] Effects of ACNQ on the activity of a bone re sorbing system were then investigated. Measured were the formation of resorption lacunae and cytotoxicity on a piece of dentinum in an osteoclast forming system by co-culture of primary osteoblast-like interstitial cells derived from the calvaria of the above mouse newborn and mouse bone marrow cells.
as §2, with “hours. After the culture, the individual cultures were transferred to 24 wells or 48 wells in which a culture medium was placed at 0.5 to 1.5 mL/well. At the same time, ACNQ solutions of various concentrations were added to the wells, respectively, followed by culture at 37° C. for 24 hours.” for “hours.”

The subject of another data set is osteoclast formation. Conditions: side chains of vitamin K1 or K2; Hara, K. et al.: Bone, 16, 179-184, 1995; cited from earlier work.

On to `C=C1/C(=C\C=C2/CCC[C@]3(C)[C@@H]([C@H](C)CCCC(C)(C)O)CC[C@@H]23)C[C@@H](O)C[C@@H]1O` [1α,25(OH)2D3, reference compound], for which the “mineralization (Ca and P accumulation)” value in data set [1] (10^−8 M to 10^−9 M (FIGS. 6 and 7)) is “promote mineralization concentration-dependently”.

For `NC1=C(C(=O)O)C(=O)c2ccccc2C1=O` [ACNQ, 2-amino-3-carboxy-1,4-naphthoquinone], the “ACNQ concentration at which ALP activity reached the peak” value in [2] (3 days culture (FIG. 4)) is roughly 1 µg/mL. Moreover, the “ALP activity of the cells” value in data set [2] (3 days culture, up to an ACNQ concentration of 1 μg/mL (FIG. 4)) is listed as “increased concentration-dependently”. Moreover, the “cytotoxicity (MTT assay, viable cell count)” value in [3] is “cytotoxicity was not observed at all”. Also, the “mineralization (Ca and P accumulation)” value in [1] (10^−5 M to 10^−7 M (FIGS. 6 and 7)) was “promote mineralization concentration-dependently”. For the same compound, the “cytotoxicity (free LDH in culture supernatant)” value in data set [4] is “not determined to show cytotoxicity”. For the same compound, the “formation of osteoclasts (TRAP-positive polykaryocytes)” value in data set [5] (human monocytes with 10^−8 M 1α,25(OH)2D3, ACNQ 10^−8 M to 10^−5 M (FIG. 9)) is “inhibited the formation of osteoclasts concentration-dependently”. Also, the “inhibitory effect on osteoclast formation compared with vitamin K1” value in data set [5] (human monocytes, same concentration as vitamin K1 (FIG. 9)) was “significantly stronger than that available from vitamin K1”. Also, the “differentiation and maturation of monocytes into osteoclasts (TRAP-positive cells with 3 or more nuclei)” value in data set [6] (mouse co-culture with 1α,25(OH)2D3, 6 to 8 days, ACNQ 0.15 to 15 μg/mL (FIG. 10)) is “inhibited differentiation and maturation”. Moreover, the formation of osteoclasts result in data set [6] (mouse co-culture, ACNQ at 1.5 μg/mL and higher (FIG. 10)) is “considerably inhibited the formation of osteoclasts”. Moreover, in data set [7], the “bone resorbing activity of osteoclasts (resorption lacunus counts)” value is “did not lower the bone resorbing activity of osteoclasts”. Moreover, in data set [8], the cytotoxicity against osteoclasts result is reported as “does not exhibit cytotoxicity against osteoclasts”.

`C/C(=C\CO)CCC[C@H](C)CCC[C@H](C)CCCC(C)C` [phytol]: the osteoclast-formation inhibitory effect result in the data set with osteoclast formation is “weak in the inhibitory effect”.
